Numbering of substitutions follows the chain as printed.
Assays:
Assay type in all cases: biochemical
[1] = biological target: T1, Trichoderma reesei beta-glucosidase I (Bgl1), wild type, SEQ ID NO:2 (mature SEQ ID NO:3) (Trichoderma reesei, UniProt Q12715); test: steady state kinetics, hydrolysis of pNpG; conditions: 0.1-9 mM, 37° C., 30 minutes
T1 construct: secreted mature protein
T1 sequence (Q12715 32-744): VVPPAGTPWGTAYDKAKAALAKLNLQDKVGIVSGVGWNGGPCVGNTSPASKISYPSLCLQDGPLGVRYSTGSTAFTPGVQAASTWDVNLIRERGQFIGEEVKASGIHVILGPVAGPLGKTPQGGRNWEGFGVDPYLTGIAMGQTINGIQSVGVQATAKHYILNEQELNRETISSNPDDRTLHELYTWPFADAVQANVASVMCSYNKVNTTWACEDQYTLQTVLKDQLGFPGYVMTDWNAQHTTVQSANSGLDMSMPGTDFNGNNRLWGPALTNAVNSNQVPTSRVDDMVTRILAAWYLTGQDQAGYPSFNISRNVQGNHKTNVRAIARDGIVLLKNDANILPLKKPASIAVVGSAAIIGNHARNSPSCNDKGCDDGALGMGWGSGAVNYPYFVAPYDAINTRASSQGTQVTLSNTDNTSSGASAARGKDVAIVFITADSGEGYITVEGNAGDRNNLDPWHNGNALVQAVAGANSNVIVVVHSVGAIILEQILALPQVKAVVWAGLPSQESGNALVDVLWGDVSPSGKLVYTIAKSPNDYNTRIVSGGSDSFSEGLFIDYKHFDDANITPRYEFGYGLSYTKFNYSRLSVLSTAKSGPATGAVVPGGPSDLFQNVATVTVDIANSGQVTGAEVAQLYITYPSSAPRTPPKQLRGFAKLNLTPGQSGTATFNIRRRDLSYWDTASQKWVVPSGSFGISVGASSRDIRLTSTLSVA
From the text: (§1) The Bgl1 variants of the table above were produced as follows. The nucleotide sequences encoding these variants were synthesized by an external vendor (BaseClear, Leiden, the Netherlands), and cloned into the pTTTpyr2 vector (see, e.g., published PCT application WO2014029808). Protoplasts of a Trichoderma reesei strain (e.g., the hexa-delete strain of International Publication WO05/001036) with its cbh1, cbh2, eg1, eg2, eg3, and bgl1 deleted) were transformed with plasmid DNA encoding the variants and wild type. The resulting transformants were fermented using standard Trichoderma reesei fermentation procedures.
(§2) Variants 02, 03 and 12 were diluted and incubated with varying concentrations of para-nitrophenol-beta-D-xylopyranoside (or para-nitrophenol-beta-D-xyloside) (pNpX) and para-nitrophenol-beta-D-glucopyranoside (pNpG) in the concentration range of 0.1-9 mM at 37° C. for 30 minutes. Reactions were stopped by addition of 100 μL 0.5 M sodium carbonate and absorbance was measured at 410 nm. Background subtracted OD410 absorbances were plotted against substrate concentration (FIG. 6B-E) and the data was fitted with a function for Michaelis-Menten kinetics using the statistical software package R. Michaelis constants and relative maximum velocities for hydrolysis of pNpX and pNpG were reported in Tables 6 and 7, below, respectively.

[2] = biological target: T2, Trichoderma reesei Bgl1 variant Bgl1-var-12, V43F/W237A (numbered per mature Bgl1, SEQ ID NO:3) (Trichoderma reesei, UniProt Q12715, V74F/W268A); test: steady state kinetics, hydrolysis of pNpG
T2 construct: diluted fermentation product
T2 sequence (Q12715 32-744 V74F/W268A): T1 sequence (Q12715 32-744) with V43F, W237A
From the text: as §1, §2

[3] = biological target: T3, Trichoderma reesei Bgl1 variant Bgl1-var-02, V43F (numbered per mature Bgl1, SEQ ID NO:3) (Trichoderma reesei, UniProt Q12715, V74F); test: steady state kinetics, hydrolysis of pNpG
T3 construct: diluted fermentation product
T3 sequence (Q12715 32-744 V74F): T1 sequence (Q12715 32-744) with V43F
From the text: as §1, §2

[4] = biological target: T4, Trichoderma reesei Bgl1 variant Bgl1-var-03, V43L (numbered per mature Bgl1, SEQ ID NO:3) (Trichoderma reesei, UniProt Q12715, V74L); test: steady state kinetics, hydrolysis of pNpG
T4 construct: diluted fermentation product
T4 sequence (Q12715 32-744 V74L): T1 sequence (Q12715 32-744) with V43L
From the text: as §1, §2

[5] = biological target: T1, Trichoderma reesei beta-glucosidase I (Bgl1), wild type, SEQ ID NO:2 (mature SEQ ID NO:3); test: steady state kinetics, hydrolysis of pNpX; conditions: not fitted, maximum velocity obtained for Variant 03 was used
From the text: as §1, §2
(§3) It was noted that the data for pNpX hydrolysis by the wild type Bgl1 could not be fitted with the Michaelis-Menten function. In order to calculate a Michalis constant the maximum velocity obtained for Variant 03 was used.

[6] = biological target: T2, Trichoderma reesei Bgl1 variant Bgl1-var-12, V43F/W237A (numbered per mature Bgl1, SEQ ID NO:3); test: steady state kinetics, hydrolysis of pNpX
From the text: as §1, §2, §3

[7] = biological target: T3, Trichoderma reesei Bgl1 variant Bgl1-var-02, V43F (numbered per mature Bgl1, SEQ ID NO:3); test: steady state kinetics, hydrolysis of pNpX
From the text: as §1, §2, §3

[8] = biological target: T4, Trichoderma reesei Bgl1 variant Bgl1-var-03, V43L (numbered per mature Bgl1, SEQ ID NO:3); test: steady state kinetics, hydrolysis of pNpX
From the text: as §1, §2, §3

[9] = fold reduction versus wild type, Table 7
[10] = pNpG, 0.1-9 mM, 37° C., 30 minutes
[11] = pNpX, 0.1-9 mM, 37° C., 30 minutes

SMILES | Relative Vmax [1] | efficiency for hydrolysis of pNpG, reduced relative to Bgl1 wild type [2, 9] [×] | Relative Vmax [2, 10] | efficiency for hydrolysis of pNpG, reduced relative to Bgl1 wild type [3, 9] [×] | Relative Vmax [3, 10] | Relative Vmax [4, 10] | efficiency for hydrolysis of pNpG compared with Bgl1 wild type ([4]; versus wild type, Table 7) | Relative Vmax [5] | Relative Vmax [6, 11] | higher efficiency of pNpX hydrolysis than the wild type ([6]; ratio to wild type, Table 6) | Relative Vmax [7, 11] | more efficient hydrolysis of pNpX as compared to the wild type Bgl1 ([7]; ratio to wild type, Table 6) | Relative Vmax [8, 11] | more efficient hydrolysis of pNpX as compared to the wild type Bgl1 ([8]; ratio to wild type, Table 6)
O=[N+]([O-])c1ccc(O[C@@H]2O[C@H](CO)[C@@H](O)[C@H](O)[C@H]2O)cc1 [pNpG, para-nitrophenol-beta-D-glucopyranoside] | 100.0 ± 0.1 | 26 | 27 ± 10 | 8 | 46 ± 6 | 87 ± 2 | approximately equal | – | – | – | – | – | – | –
O=[N+]([O-])c1ccc(O[C@@H]2OC[C@@H](O)[C@H](O)[C@H]2O)cc1 [pNpX, para-nitrophenol-beta-D-xylopyranoside] | – | – | – | – | – | – | – | 100 ± 4 | 89 ± 4 | about 2 × | 93 ± 4 | 6-7 fold | 100 ± 4 | 6-7 fold
